# From patent US8211861B2, “Compositions for and methods of enhancing the immune response to antigens” (Wittycell, priority 2007, dated 2012)
# B1: ovalbumin (protein, UniProt P01012 2-386, looked up)
# Ovalbumin: GSIGAASMEFCFDVFKELKVHHANENIFYCPIAIMSALAMVYLGAKDSTRTQINKVVRFDKLPGFGDSIEAQCGTSVNVHSSLRDILNQITKPNDVYSFSLASRLYAEERYPILPEYLQCVKELYRGGLEPINFQTAADQARELINSWVESQTNGIIRNVLQPSSVDSQTAMVLVNAIVFKGLWEKAFKDEDTQAMPFRVTEQESKPVQMMYQIGLFRVASMASEKMKILELPFASGTMSMLVLLPDEVSGLEQLESIINFEKLTEWTSSNVMEERKIKVYLPRMKMEEKYNLTSVLMAMGITDVFSSSANLSGISSAESLKISQAVHAAHAEINEAGREVVGSAEAGVDAASVSEEFRADHPFLFCIKHIATNAVLFFGRCVSP
# notes: nominal antigen, Ovalbumin grade VII, Sigma
# Experiments:
# [1] = tested on: Ova-specific target cells; experiment: in vivo specific cytotoxic T cell (CD8+) response, specific lysis of Ova-specific target cells; set-up: species or system mouse; details: for specific lysis of Ova-specific target cells in blood: Example 1, FIG. 1, 1 μg adjuvant with 50 μg Ova, day 0, target cells day 10, read day 11; for specific lysis of Ova-specific target cells in blood / average Ova-specific cytotoxic response (percent specific lysis): IV; for percentage of specific lysis of the target cells by CD8+ T cells: Example 5 Experiment B, FIG. 8, 50 μg OVA with 10 ng adjuvant; for percentage of specific lysis of the target cells by CD8+ T cells / average OVA-specific cytotoxic response (percent specific lysis) / enhancement of the CD8+ T cell response at low doses (specific lysis): IM; for percentage of specific lysis of the target cells by CD8+ T cells / average Ova-specific cytotoxic response (percent specific lysis) / average OVA-specific cytotoxic response (percent specific lysis): blood day 11; for average Ova-specific cytotoxic response (percent specific lysis): Example 2, FIG. 2; for average Ova-specific cytotoxic response (percent specific lysis) / average OVA-specific cytotoxic response (percent specific lysis): 400 μg Ova with or without 1 μg adjuvant; for average OVA-specific cytotoxic response (percent specific lysis): Example 2, FIG. 3; for enhancement of the CD8+ T cell response at low doses (specific lysis): Example 5, FIGS. 7 and 8, 50 μg OVA with 100 ng or 10 ng adjuvant
# [2] = tested on: CD8+ T cells responsive to OVA; experiment: SIINFEKL pentamer assay, percentage of OVA-specific CD8+ T cells; assay type: in vivo, mouse; details: IM, days 0 and 14, blood day 21
# Procedure: To verify the results obtained using the in vivo cytotoxicity assay described in the Examples above, similar experiments were performed and CD8+ T cell activation was determined by measuring the percentage of OVA-specific CD8+ T cells using a pentamer assay. Briefly, mice were injected intramuscularly with the indicated amounts of OVA and test adjuvant compound at either 1 μg or 100 ng per mouse, respectively on day 0 as follows:
# Experiment A: • Group 1: 100 μl of PBS; • Group 2: 50 μg of Ova into 100 μl PBS; • Group 3: 50 μg of Ova with 1 μg αGalCer; • Group 4: 50 μg of Ova with 1 μg PBS-11 • Group 5: 50 μg of Ova with 1 μg PBS-14 • Group 6: 50 μg of Ova with […] PBS-57 • Group 7: 50 μg of Ova with 1 μg PBS-96
# Experiment B: • Group 1: 100 μl of PBS; • Group 2: 50 μg of Ova into 100 μl PBS; • Group 3: 50 μg of Ova with 100 ng αGalCer; • Group 4: 50 μg of Ova with 100 ng PBS-11 • Group 5: 50 μg of Ova with 100 ng PBS-14 • Group 6: 50 μg of Ova with 100 ng PBS-57 • Group 7: […] of Ova with 100 ng PBS-96 A second injection was administered to the mice on day 14 and blood was collected from the mice on day 21. The lymphocytes were collected and analyzed by FACS analysis using H-2K^b SIINFEKL pentamer and CD8 antibody to detect CD8+ T cells responsive to OVA.
# OVA-specific IgG2a = OVA-specific IgG2a ELISA after intramuscular immunization; assay type: in vivo, mouse; details: FIG. 12; IM, 50 μg OVA with 100 ng adjuvant, 14 days post-injection
# Procedure: Mice (6 per group) were injected intramuscularly with 50 μg of OVA either alone or in combination with 100 ng of the indicated adjuvants (Freund's adjuvant was used as a positive control) as follows: • Group 1: […] of Ova with CFA/IFA (Positive control) • Group 2: 50 μg of Ova • Group 3: 50 μg of Ova and 100 ng of αGalCer • Group 4: 50 μg of Ova and 100 ng of PBS-11 • Group 5: 50 μg of Ova and 100 ng of PBS-14 • Group 6: 50 μg of Ova and 100 ng of PBS-57 • Group 7: 50 μg of Ova and 100 ng of PBS-96 At 14 days post-injection, blood samples were collected and ELISAs for IgG1 and IgG2a were performed using mouse monoclonal antibodies specific for OVA isotype IgG1 or IgG2a. The results are shown as the titer of the antibody in peripheral blood in ng/ml. The results for IgG1 are depicted in FIG. 11 and those for IgG2a are depicted in FIG. 12.
# [3] = Example 6 Experiment A, FIG. 9, 50 μg Ova with 1 μg adjuvant
# [4] = Example 6 Experiment B, FIG. 10, 50 μg Ova with 100 ng adjuvant
Molecule,specific lysis of Ova-specific target cells in blood [1],percentage of specific lysis of the target cells by CD8+ T cells [1],"percentage of OVA specific CD8+ T cells (SIINFEKL pentamer) [2, 3]",average Ova-specific cytotoxic response (percent specific lysis) [1],average OVA-specific cytotoxic response (percent specific lysis) [1],enhancement of the CD8+ T cell response at low doses (specific lysis) [1],"percentage of OVA specific CD8+ T cells (SIINFEKL pentamer) [2, 4]",OVA specific IgG2a titer in peripheral blood (OVA-specific IgG2a)
"CCCCCCCCCCCCCCCCCCCCCCCCCC(=O)N[C@@H](CO[C@H]1O[C@H](CNC(=O)CCCC[C@@H]2SC[C@@H]3NC(=O)N[C@@H]32)[C@H](O)[C@H](O)[C@H]1O)[C@H](O)[C@H](O)CCCCCCCCCCCCCC [PBS-11, reference compound]",did not result in specific lysis of cells,indistinguishable from the controls,not as effective,–,–,–,–,–
CCCCCCCCCCCCCCCCCCCCCCCCCC(=O)N[C@@H](CO[C@H]1O[C@H](CNC(C)=O)[C@H](O)[C@H](O)[C@H]1O)[C@H](O)[C@H](O)CCCCCCCCCCCCCC [PBS-14],resulted in cytotoxic lysis of Ova-specific target cells,–,enhanced the percentage of OVA specific CD8+ T cells,83.3±6.1%,52.07±29.56%,unexpectedly better than other adjuvants,surprisingly much better at enhancing the CD8+ T cell response,enhanced the OVA specific IgG2a titer about as well as Freund's adjuvant and much better than PBS-57
"CCCCCCCC/C=C\CCCCCCCCCCCCCC(=O)N[C@@H](CO[C@H]1O[C@H](CNC(C)=O)[C@H](O)[C@H](O)[C@H]1O)[C@H](O)[C@H](O)CCCCCCCCCCCCCC [PBS-57, reference compound]",–,indistinguishable from the controls,enhanced the percentage of OVA specific CD8+ T cells,88.1±6.2%,56.11±13.34%,–,–,–
CCCCCCCCCCCCCCCCCCCCCCCC(=O)N[C@@H](CO[C@H]1O[C@H](CNC(C)=O)[C@H](O)[C@H](O)[C@H]1O)[C@H](O)[C@H](O)CCCCCCCCCCCCCC [PBS-96],resulted in cytotoxic lysis of Ova-specific target cells,–,enhanced the percentage of OVA specific CD8+ T cells,89.2±10.3%,50.29±42.6%,unexpectedly better than other adjuvants,surprisingly much better at enhancing the CD8+ T cell response,enhanced the OVA specific IgG2a titer about as well as Freund's adjuvant and much better than PBS-57
"CCCCCCCCCCCCCCCCCCCCCCCCCC(=O)N[C@@H](CO[C@H]1O[C@H](CO)[C@H](O)[C@H](O)[C@H]1O)[C@H](O)[C@H](O)CCCCCCCCCCCCCC [αGalCer, α-galactosyceramide, reference compound]",–,indistinguishable from the controls,not as effective,–,–,–,–,–
B1,–,–,–,11.8±14.4%,1.60±14.33%,–,–,–
